Patent US9422274B2, “Oxazolidinone derivatives and composition for preventing or treating hepatitis C containing the same” (KOREA INSTITUTE OF SCIENCE AND TECHNOLOGY, priority 2013, dated 2016)

How the values were obtained:
Hepatitis C virus [1] = test: Anti-viral activity test (HCVcc, Type 2a), JFH 5a-Rluc luciferase in Huh7.5.1 cell line; format: cell-based; conditions: for inhibition: Huh-7.5.1, luciferase activity, negative control = 100%, Huh7.5.1 cells infected with JFH 5a-Rluc, read-out: HCV inhibition rate %; for EC50: Huh-7.5.1, read-out: EC50 (concentration of compound to inhibit the 50% of viral growth)
Protocol: The inhibitory effect of the oxazolidinone compounds on HCV replicon and NS5A were HCV was tested by the method disclosed in KR-A 10-2010-0007937 or US-A 2010/0215696.
The cell lines containing replicon were prepared by preparing JFH 5a-Rluc (plasmid expressing Renilla luciferase reporter protein) RNA according to the method disclosed in the documents, introducing the JFH 5a-Rluc RNA into host cell lines (Huh7.5.1 cell line) by electroporation and infecting the host cell lines (Zhnog et al., Proc. Natl. Acad. Sci. USA, 102, 9294-9299). After the infected cell lines were cultured with or without the treatment of the oxazolidinone compound, the luciferase activity was detected to obtain the inhibitory effect of […] replicon replication. EC50) of the compound was determined by performing the test at various concentrations of the compound.
The compounds Example 1 to 17 were tested for anti-viral activity on Hepatitis C virus, according to the method of KR10-2010-0007937 (published on Jan. 22, 2010) or US2010/0215696 (published on Aug. 26, 2010).
The cell lines containing replicon were prepared by preparing JFH 5a-Rluc (plasmid expressing Renilla luciferase reporter protein) RNA according to the method disclosed in the documents, introducing the JFH 5a-Rluc RNA into host cell lines (Huh7.5.1 cell line) by electroporation and infecting the host cell lines (Zhnog et al., Proc. Natl. Acad. Sci. USA, 102, 9294-9299). After the infected cell lines were cultured with or without the treatment of 1 mM of the oxazolidinone compounds of Examples 1 to 17, the host cell lines were obtained on 1, 2 and 3 days after treatment, and the luciferase activity produced from the host cells was measured.
The luciferase activity of negative control which was not treated with the oxazolidinone compound is set to 100%. At various amounts of the oxazolidinone compounds, the luciferase activities were calculated based on the negative control to obtain the inhibition rate of HCV (%). The positive control was Interferon (INF)(Sigma, SRP4595).

Hepatitis C virus [2] = test: as above; format: cell-based, Hepatitis C virus (HCVcc; conditions: for inhibition at 0.001 µM: Hepatitis C virus, Huh-7.5.1, read-out: inhibition rate; for remnant HCV amount: treated at a concentration of 1 nM

CC(C)(C)OC(=O)N1CCC[C@H]1c1ncc(-c2ccc(-c3ccc(N4C[C@H](Cn5ccnn5)OC4=O)cc3F)cc2)[nH]1 [Example 1, tert-Butyl(S)-2-(5-(4′-((R)-5-((1H-1,2,3-triazol-1-yl)methyl)-2-oxooxazolidin-3-yl)-2′-fluoro-[1,1′-biphenyl]-4-yl)-1H-imidazol-2-yl)pyrrolidine-1-carboxylate]
inhibition (Hepatitis C virus [1]): 31.7%

CC(=O)N1CCC[C@H]1c1ncc(-c2ccc(-c3ccc(N4C[C@H](Cn5ccnn5)OC4=O)cc3F)cc2)[nH]1 [Example 2, (R)-5-((1H-1,2,3-Triazol-1-yl)methyl)-3-(4′-(2-((S)-1-acetylpyrrolidin-2-yl)-1H-imidazol-5-yl)-2-fluoro-[1,1′-biphenyl]-4-yl)oxazolidin-2-one]
inhibition (Hepatitis C virus [1]): 32%

COC(=O)N[C@H](C(=O)N1CCC[C@H]1c1ncc(-c2ccc(-c3ccc(N4C[C@H](Cn5ccnn5)OC4=O)cc3F)cc2)[nH]1)C(C)C [Example 3, Methyl ((S)-1-((S)-2-(5-(4′-((R)-5-((1H-1,2,3-triazol-1-yl)methyl)-2-oxooxazolidin-3-yl)-2′-fluoro-[1,1′-biphenyl]-4-yl)-1H-imidazol-2-yl)pyrrolidin-1-yl)-3-methyl-1-oxobutan-2-yl)carbamate]
inhibition at 0.001 µM (Hepatitis C virus [2]): 78.9% | remnant HCV amount (Hepatitis C virus [2]): 21.1% | inhibition (Hepatitis C virus [1]): 99.8% | EC50 (Hepatitis C virus [1]): 0.98 nM

COC(=O)N[C@H](C(=O)N1CCC[C@H]1c1ncc(-c2ccc(-c3ccc(N4C[C@H](Cn5ccnn5)OC4=O)cc3F)cc2)[nH]1)c1ccccc1 [Example 4, methyl ((S)-2-((S)-2-(5-(4′-((R)-5-((1H-1,2,3-triazol-1-yl)methyl)-2-oxooxazolidin-3-yl)-2′-fluoro-[1,1′-biphenyl]-4-yl)-1H-imidazol-2-yl)pyrrolidin-1-yl)-2-oxo-1-phenylethyl)carbamate]
inhibition (Hepatitis C virus [1]): 95.2%

COC(=O)N[C@H](C(=O)N1CCC[C@H]1c1ncc(-c2ccc(-c3ccc(N4C[C@H](Cn5cc(CO)nn5)OC4=O)cc3F)cc2)[nH]1)C(C)C [Example 5, Methyl ((S)-1-((S)-2-(5-(2′-fluoro-4′-((R)-5-((4-(hydroxymethyl)-1H-1,2,3-triazol-1-yl)methyl)-2-oxooxazolidin-3-yl)-[1,1′-biphenyl]-4-yl)-1H-imidazol-2-yl)pyrrolidin-1-yl)-3-methyl-1-oxobutan-2-yl)carbamate]
inhibition (Hepatitis C virus [1]): 95.8%

COC(=O)N[C@H](C(=O)N1CCC[C@H]1c1ncc(-c2ccc(-c3ccc(N4C[C@H](Cn5cc(CCO)nn5)OC4=O)cc3F)cc2)[nH]1)C(C)C [Example 6, Methyl ((S)-1-((S)-2-(5-(2′-fluoro-4′-((R)-5-((4-(2-hydroxyethyl)-1H-1,2,3-triazol-1-yl)methyl)-2-oxooxazolidin-3-yl)-[1,1′-biphenyl]-4-yl)-1H-imidazol-2-yl)pyrrolidin-1-yl)-3-methyl-1-oxobutan-2-yl)carbamate]
inhibition (Hepatitis C virus [1]): 84.4%

COCc1cn(C[C@H]2CN(c3ccc(-c4ccc(-c5cnc([C@@H]6CCCN6C(=O)[C@@H](NC(=O)OC)C(C)C)[nH]5)cc4)c(F)c3)C(=O)O2)nn1 [Example 7, Methyl ((S)-1-((S)-2-(5-(2′-fluoro-4′-((R)-5-((4-(methoxymethyl)-1H-1,2,3-triazol-1-yl)methyl)-2-oxooxazolidin-3-yl)-[1,1′-biphenyl]-4-yl)-1H-imidazol-2-yl)pyrrolidin-1-yl)-3-methyl-1-oxobutan-2-yl)carbamate]
inhibition (Hepatitis C virus [1]): 83.3%

COC(=O)N[C@H](C(=O)N1CCC[C@H]1c1ncc(-c2ccc(-c3ccc(N4C[C@H](Cn5cc(COC(C)=O)nn5)OC4=O)cc3F)cc2)[nH]1)C(C)C [Example 8, 1-(((R)-3-(2-Fluoro-4′-(2-((S)-1-((methoxycarbonyl)-L-valyl)pyrrolidin-2-yl)-1H-imidazol-5-yl)-[1,1′-biphenyl]-4-yl)-2-oxooxazolidin-5-yl)methyl)-1H-1,2,3-triazol-4-yl)methyl acetate]
inhibition (Hepatitis C virus [1]): 79.8%

COC(=O)N[C@H](C(=O)N1CCC[C@H]1c1ncc(-c2ccc(-c3ccc(N4C[C@H](Cn5cc(COCc6ccccc6)nn5)OC4=O)cc3F)cc2)[nH]1)C(C)C [Example 9, Methyl ((S)-1-((S)-2-(5-(4′-((R)-5-((4-((benzyloxy)methyl)-1H-1,2,3-triazol-1-yl)methyl)-2-oxooxazolidin-3-yl)-2′-fluoro-[1,1′-biphenyl]-4-yl)-1H-imidazol-2-yl)pyrrolidin-1-yl)-3-methyl-1-oxobutan-2-yl)carbamate]
inhibition at 0.001 µM (Hepatitis C virus [2]): 97% | remnant HCV amount (Hepatitis C virus [2]): 3.0% | inhibition (Hepatitis C virus [1]): 97.3% | EC50 (Hepatitis C virus [1]): 17.4 nM

COC(=O)N[C@H](C(=O)N1CCC[C@H]1c1ncc(-c2ccc(-c3ccc(N4C[C@H](Cn5cc(CNC(C)=O)nn5)OC4=O)cc3F)cc2)[nH]1)C(C)C [Example 10, Methyl ((S)-1-((S)-2-(5-(4′-((R)-5-((4-(acetamidomethyl)-1H-1,2,3-triazol-1-yl)methyl)-2-oxooxazolidin-3-yl)-2′-fluoro-[1,1′-biphenyl]-4-yl)-1H-imidazol-2-yl)pyrrolidin-1-yl)-3-methyl-1-oxobutan-2-yl)carbamate]
inhibition (Hepatitis C virus [1]): 32.8%

COC(=O)N[C@H](C(=O)N1CCC[C@H]1c1ncc(-c2ccc(-c3ccc(N4C[C@H](Cn5cc(-c6ccccc6)nn5)OC4=O)cc3F)cc2)[nH]1)C(C)C [Example 11, Methyl ((S)-1-((S)-2-(5-(2′-fluoro-4′-((R)-2-oxo-5-((4-phenyl-1H-1,2,3-triazol-1-yl)methyl)oxazolidin-3-yl)-[1,1′-biphenyl]-4-yl)-1H-imidazol-2-yl)pyrrolidin-1-yl)-3-methyl-1-oxobutan-2-yl)carbamate]
inhibition at 0.001 µM (Hepatitis C virus [2]): 95.2% | remnant HCV amount (Hepatitis C virus [2]): 6.8% | inhibition (Hepatitis C virus [1]): 96.7%

COC(=O)N[C@H](C(=O)N1CCC[C@H]1c1ncc(-c2ccc(-c3ccc(N4C[C@H](CNC(C)=O)OC4=O)cc3F)cc2)[nH]1)C(C)C [Example 12, Methyl ((S)-1-((S)-2-(5-(4′-((S)-5-(acetamidomethyl)-2-oxooxazolidin-3-yl)-2′-fluoro-[1,1′-biphenyl]-4-yl)-1H-imidazol-2-yl)pyrrolidin-1-yl)-3-methyl-1-oxobutan-2-yl)carbamate]
inhibition at 0.001 µM (Hepatitis C virus [2]): 27% | remnant HCV amount (Hepatitis C virus [2]): 73% | inhibition (Hepatitis C virus [1]): 99.8%

CC(=O)NC[C@H]1CN(c2ccc(-c3ccc(-c4cnc([C@@H]5CCCN5C(=O)OC(C)(C)C)[nH]4)cc3)c(F)c2)C(=O)O1 [Example 13, tert-Butyl (S)-2-(5-(4′-((S)-5-(acetamidomethyl)-2-oxooxazolidin-3-yl)-2′-fluoro-[1,1′-biphenyl]-4-yl)-1H-imidazol-2-yl)pyrrolidine-1-carboxylate]
inhibition (Hepatitis C virus [1]): 46.2%

CC(=O)NC[C@H]1CN(c2ccc(-c3ccc(-c4cnc([C@@H]5CCCN5C(C)=O)[nH]4)cc3)c(F)c2)C(=O)O1 [Example 14, N—(((S)-3-(4′-(2-((S)-1-acetylpyrrolidin-2-yl)-H-imidazol-5-yl)-2-fluoro-[1,1′-biphenyl]-4-yl)-2-oxooxazolidin-5-yl)methyl)acetamide]
inhibition (Hepatitis C virus [1]): 28%

COC(=O)N[C@H](C(=O)NC[C@H]1CN(c2ccc(-c3ccc(-c4cnc([C@@H]5CCCN5C(=O)[C@@H](NC(=O)OC)C(C)C)[nH]4)cc3)c(F)c2)C(=O)O1)C(C)C [Example 15, Methyl ((S)-1-((((S)-3-(2-fluoro-4′-(2-((S)-1-((methoxycarbonyl)-L-valyl)pyrrolidin-2-yl)-1H-imidazol-5-yl)-[1,1′-biphenyl]-4-yl)-2-oxooxazolidin-5-yl)methyl)amino)-3-methyl-1-oxobutan-2-yl)carbamate]
inhibition at 0.001 µM (Hepatitis C virus [2]): 44.3% | remnant HCV amount (Hepatitis C virus [2]): 55.7% | inhibition (Hepatitis C virus [1]): 99.8% | EC50 (Hepatitis C virus [1]): 1 nM

COC(=O)N[C@H](C(=O)NC[C@H]1CN(c2ccc(-c3ccc(-c4cnc([C@@H]5CCCN5C(=O)OC(C)(C)C)[nH]4)cc3)c(F)c2)C(=O)O1)C(C)C [Example 16, tert-Butyl (S)-2-(5-(2′-fluoro-4′-((S)-5-(((S)-2-((methoxycarbonyl)amino)-3-methylbutanamido)methyl)-2-oxooxazolidin-3-yl)-[1,1-biphenyl]-4-yl)-1H-imidazol-2-yl)pyrrolidine-1-carboxylate]
inhibition (Hepatitis C virus [1]): 58%

COC(=O)N[C@H](C(=O)NC[C@H]1CN(c2ccc(-c3ccc(-c4cnc([C@@H]5CCCN5C(C)=O)[nH]4)cc3)c(F)c2)C(=O)O1)C(C)C [Example 17, Methyl ((S)-1-((((S)-3-(4′-(2-((S)-1-acetylpyrrolidin-2-yl)-1H-imidazol-5-yl)-2-fluoro-[1,1′-biphenyl]-4-yl)-2-oxooxazolidin-5-yl)methyl)amino)-3-methyl-1-oxobutan-2-yl)carbamate]
inhibition (Hepatitis C virus [1]): 38.1%
